Source: patent publication US20020183937A1, “Method for the generation of proteins with new enzymatic function” (priority 2001, published 2002)
pKi: −log10 of the molar value.

What was measured:
[1] = target: T1, PZD2 (Escherichia coli, UniProt P0AA25, D27I/F13A/L18H/Y71A); assay: Inhibition of PZD2 catalyzed PNPA hydrolysis; format: biochemical, E. coli
T1 construct: made in house; host or cells: E. coli BL21 (DE3), vector pET-11a
Description: With this in mind, we assayed the inhibitory effects of p-nitrophenol glycerol (PNPG), a highly soluble compound with structural similarity to PNPA.

[2] = Burst phase PNPA hydrolysis assay at high substrate concentration; settings: 1.6 mM PNPA, 4 μM protein (FIG. 7)
Description: PZD2 was dialyzed extensively against 10 mM sodium phosphate buffer at pH 6.95. Kinetic experiments at 22° C. were started by the addition of substrate dissolved in acetonitrile to buffer solution with and without PZD2 (final protein concentration of 4 μM). Protein concentration was determined by UV absorbance in 6M guanidinium hydrochloride assuming an extinction coefficient of 12400 M^−1cm^−1 at 280 nm. Product concentration was determined by the change in absorbance at 400.5 nm assuming an extinction coefficient for deprotonated PNP of 19700 M^31 1cm^−1. Final acetronitrile concentration was 1% for all experiments. The steady state rate of hydrolysis by PZD2 was corrected for the buffer rate. Burst phase hydrolysis assays were performed at a substrate concentration of 1.6 mM. Protein concentration was 4 μM, with the exception of wild type thioredoxin. Wild type thioredoxin was assayed at 50 μM to improve signal to noise and extrapolated to a protein concentration of 4 μM. The dead time for this experiment was approximately 30 seconds.

[3] = Steady state kinetics of PNPA hydrolysis by protozymes; format: biochemical; settings: qualitative statement

T1 sequence (P0AA25 2-109 F13A/L18H/D27I/Y71A): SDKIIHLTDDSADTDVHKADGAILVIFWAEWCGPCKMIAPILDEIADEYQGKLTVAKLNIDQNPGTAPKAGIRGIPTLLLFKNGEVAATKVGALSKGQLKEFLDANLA

Compound: O=[N+]([O-])c1ccc(OP(=O)(O)O)cc1 [p-nitrophenyl phosphate]
- inhibition ([1]; concentrations up to 20 mM): did not show detectable inhibition

Compound: Wild type thioredoxin: thioredoxin protein from E. coli, scaffold; wild type sequence, H at position 6 with no binding site mutations
- catalytic activity (PNPA hydrolysis) [2]: essentially inactive
- enzyme-like activity toward PNPA hydrolysis [3]: essentially catalytically inert
- enzyme-like activity toward PNPA hydrolysis ([3]; listed as wild type protein): does not exhibit enzyme-like activity

Compound: p-nitrophenol glycerol [PNPG]
- pKi ([1]; fixed substrate concentration, read-out: K1 (Dixon analysis of inhibition)): 1.70
- mode of inhibition (double reciprocal analysis) ([1]; presence and absence of inhibitor, 10 mM PNPG (FIG. 9)): competitive inhibition
